We go through 23 molecules from patent US8541442B2, “Indole derivatives as anticancer agents” (Janssen Pharmaceutica N.V., priority 2009, dated 2013).

The test system of one assay is p53 in A2780 cells. Briefly: p53 ELISA (preservation of p53 in A2780 cells). It is filed as cell-based, human. To be noted: 16 hours treatment; for minimal effective concentration: Homo sapiens, A2780, 16 h, read-out: p53-elisa LAD (lowest dose giving at least 140% of the value for p53 present in the control). The procedure: The capacity of the present compounds to preserve p53 in A2780 cells was measured with the p53 enzyme linked immunosorbent assay. The p53 assay is a “sandwich” enzyme immunoassay employing two polyclonal antibodies. A polyclonal antibody, specific for the p53 protein, has been immobilized onto the surface of the plastic wells. Any p53 present in the sample to be assayed will bind to the capture antibody. The biotinylated detector polyclonal antibody also recognizes p53 protein, and will bind to any p53, which has been retained by the capture antibody. The detector antibody, in turn, is bond by horseradish peroxidase-conjugated streptavidin. The horseradish peroxidase catalyses the conversion of the chromogenic substrate o-phenylene diamine, the intensity of which is proportional to the amount of p53 protein bond to the plate. The colored reaction product is quantified using a spectrophotometer. Quantitation is achieved by the construction of a standard curve using known concentrations of purified recombinant HIS tagged p53 protein (see example C.1.).
A2780 cells (ATCC) were cultivated in RPMI 1640 supplemented with 10% fetal calf serum (FCS), 2 mM L-glutamine and gentamycin at 37° C. in a humidified incubator with 5% CO2.
A2780 cells were seeded at 20.000 cells per well in a 96 well plate, cultured for 24 hours and treated with compound for 16 hours at 37° C. in a humidified incubator. After incubation, the cells were washed once with phosphate-buffered saline and 30 μl, per well, low salt RIPA buffer (20 mM tris, pH7.0, 0.5 mM EDTA, 1% Nonidet P40, 0.5% DOC, 0.05% SDS, 1 mM PMSF, 1 μg/ml aprotinin and 0.5 μ/ml leupeptin) was added. Plates were placed on ice for 30 minutes to complete the lysis. p53 protein was detected in de lysates by using the sandwich ELISA, described below.
High binding polystyrene EIA/RIA 96 well plates (Costar 9018) were coated with the capture antibody pAb1801 (Abcam ab28-100) at a concentration of 1 μg/ml in coating buffer (0.1 M NaHCO3 pH8.2), 50 μl per well. The antibody was allowed to adhere overnight at 4° C. Coated plates were washed once with phosphate-buffered saline (PBS)/0.05% Tween 20 and 300 μl of blocking buffer (PBS, 1% bovine serum albumins (BSA)) was added, for an incubation period of 2 hours at room temperature. Dilutions of purified recombinant HIS tagged p53 protein, ranging from 3-200 ng/ml, were made in blocking buffer and used as standards.
Plates were washed twice with PBS/0.05% Tween 20 and blocking buffer or standards were added at 80 μl/well. To the standards, 20 μl of lysis buffer was added. The samples were added to the other wells at 20 μl lysate/well. After an overnight incubation at 4° C., plates were washed twice with PBS/0.05% Tween 20. Aliquots of 100 μl secondary polyclonal antibody p53(FL-393) (Tebubio, sc-6243) at a concentration of 1 μg/ml in blocking buffer were added to each well and allowed to adhere for 2 hours at room temperature. Plates were washed three times with PBS/0.05% Tween 20. Detection antibody anti-rabbit HRP (sc-2004, Tebubio) at 0.04 μg/ml in PBS/1% BSA was added and incubated for 1 hour at room temperature. Plates were washed three times with PBS/0.05% Tween 20 and 100 μl of substrate buffer was added (substrate buffer was prepared shortly before use by adding 1 tablet of 10 mg o-phenylene diamine (OPD) from Sigma and 125 μl 3% H2O2 to 25 ml OPD buffer: 35 mM citric acid, 66 mM Na2HPO4, pH5.6). After 5 to 10 minutes, colour reaction was stopped by adding 50 μl stop buffer (1 M H2SO4) per well. The absorbance at dual wavelengths of 490/655 nm was measured using a Biorad micro plate reader and the results were then analyzed.
For each experiment, controls (containing no drug) and a blank incubation (containing no cells or drugs) were run in parallel. The blank value was subtracted from all control and sample values. For each sample, the value of p53 (in absorbance units) was expressed as the percentage of the value for p53 present in the control. […]
(In general: ELISA stands for enzyme-linked immunosorbent assay.)

In assay [1] the test system is human prostate cancer cell line DU145. Briefly: Alamar Blue cell proliferation assay, DU145. To be noted: for IC50: Homo sapiens, DU-145, DU145 cells, read-out: DU145 cell proliferation inhibition pIC50 (converted); for DU145 cell proliferation inhibition pIC50: DU145 cells. The format is cell-based. The procedure:
(§1) For experiments in 384 wells plates the cells were seeded at a density of 5×10^3 cells/ml in Falcon 384-well culture plates (Life Technologies, Merelbeke, Belgium), black with clear bottom, in 45 μl culture medium. Cells were allowed to adhere to plastic for 24 hr. The tested compound was pre-diluted (1/50 in culture medium) and 5 μl pre-diluted compound was added to the wells. Following 4-day incubation, 10 μl of the Alamar Blue solution was added to each well and the cells were further incubated for 5 hrs (A2780) at 37° C. The fluorescence intensity was measured for each well with a Fluorescence plate reader (Fluorskan, Labsystems, 540 nm excitation and 590 nm emission)
(§2) The antiproliferative activity was calculated as percentage of remaining viable cells in treated versus control (untreated cells) conditions. Within an experiment, the result for each experimental condition is the mean of 3 replicate wells. When appropriate, the experiments were repeated to establish full concentration-response curves. When appropriate, IC50-values (concentration of the drug, needed to reduce cell growth to 50% of the control) were computed using probit analysis for graded data (Finney, D. J., Probit Analyses, 2nd Ed. Chapter 10, Graded Responses, Cambridge University Press, Cambridge 1962). Herein the effects of test compounds are expressed as pIC50 (the negative log value of the IC50-value (M)) (see Table 5A).
(§3) Compounds were also tested according to the above protocol but using other cell lines: colorectal cancer cell line HCT116, non-small cell lung cancer cell line H1299, human prostate cancer cell line DU145.
For orientation: Alamar Blue is a resazurin reagent that responds to reducing activity.

Assay [2] deals with colorectal cancer cell line HCT116. Put plainly: Alamar Blue cell proliferation assay, HCT116. The format is cell-based. The settings on record: for IC50: Homo sapiens, HCT-116, HCT116 cells, read-out: HCT116 cell proliferation inhibition pIC50 (converted); for HCT116 cell proliferation inhibition pIC50: HCT116 cells. As for the experimental part:
as §1, §2, §3

Regarding `Cc1cc(Nc2ccncc2)ccc1NCCc1c[nH]c2c(C(C)(C)O)cccc12` [Compound 2], the minimal effective concentration in the assay on p53 in A2780 cells was 0.1 µM. Besides, in assay [1], the IC50 was 692 nM.
For `Cc1cc(Nc2ccnc3c2CCC3=O)ccc1NCCc1c[nH]c2c(C(C)O)cccc12` (stereo not drawn) [Compound 4], the minimal effective concentration with p53 in A2780 cells came to 0.1 µM. Further, the IC50 in assay [2] is 1000 nM; in assay [1], 5130 nM.
Taken in the same sequence, the figures for `Cc1cc(Nc2ccnc(CO)c2)ccc1NCCc1c[nH]c2c(C(C)O)cccc12` (stereo not drawn) [Compound 5] were 0.1 µM, 347 nM and 2750 nM.
On to `COC1CCc2c(Nc3ccc(NCCc4c[nH]c5c(C(C)O)cccc45)c(C)c3)ccnc21` (stereo not drawn) [Compound 16], for which, in the assay on p53 in A2780 cells, the “p53-elisa LAD (lowest dose giving at least 140% of the value for p53 present in the control)” value is 0.30 µM. In addition, the “HCT116 cell proliferation inhibition pIC50” value in assay [2] stood at 6.68. Further, the “DU145 cell proliferation inhibition pIC50” value in assay [1] is on record as 5.98.
Turning to `COC1CCc2c(Nc3ccc(NCCc4c[nH]c5c(C(C)(C)O)cccc45)cc3)ccnc21` (single isomer, unassigned) [Compound 24], the “p53-elisa LAD (lowest dose giving at least 140% of the value for p53 present in the control)” value in the assay on p53 in A2780 cells stood at 0.03 µM. Also, the figures for the IC50 in assay [2] and in assay [1] were 38 nM and 295 nM, respectively.
As to `CC(C)(O)c1cccc2c(CCNc3ccc(Nc4ccnc5c4CCC5(C)O)cc3)c[nH]c12` (single isomer, unassigned) [Compound 31], in the assay on p53 in A2780 cells, the “p53-elisa LAD (lowest dose giving at least 140% of the value for p53 present in the control)” value amounted to 0.10 µM. The “HCT116 cell proliferation inhibition pIC50” value in assay [2] was determined as 6.94. Further, the “DU145 cell proliferation inhibition pIC50” value in assay [1] is 6.04.
Consider `Cc1cc(Nc2ccnc3c2CCC3O)ccc1NCCc1c[nH]c2c(CCO)cccc12` (single isomer, unassigned) [Compound 23], for which the “p53-elisa LAD (lowest dose giving at least 140% of the value for p53 present in the control)” value in the assay on p53 in A2780 cells stood at 3.00 µM. For the same molecule, the “HCT116 cell proliferation inhibition pIC50” value in assay [2] was determined as 5.53. The “DU145 cell proliferation inhibition pIC50” value in assay [1] is 5.
On to `Cc1cc(Nc2ccnc3c2CCC3(C)O)ccc1NCCc1c[nH]c2c(C(C)(C)O)cccc12` (stereo not drawn) [Compound 1], for which the minimal effective concentration with p53 in A2780 cells turned out to be 0.1 µM. The IC50 is 151 nM in assay [2] and 1200 nM in assay [1].
Consider `Cc1cc(Nc2ccnc3c2CCC3O)ccc1NCCc1c[nH]c2c(C(C)(C)O)cccc12` (stereo not drawn) [Compound 18], for which the “p53-elisa LAD (lowest dose giving at least 140% of the value for p53 present in the control)” value in the assay with p53 in A2780 cells came out at 0.03 µM. Also, the IC50 in assay [2] was 53.7 nM. Also, in assay [1], the “DU145 cell proliferation inhibition pIC50” value is 6.40.
As to `Cc1cc(Nc2ccnc3c2CCC3O)ccc1NCCc1c[nH]c2c(CCC(C)O)cccc12` (stereo not drawn) [Compound 9], the minimal effective concentration with p53 in A2780 cells worked out at 1 µM. Besides, the results for the IC50 in assay [2] and in assay [1] were 955 nM and 5500 nM, respectively.
As to `Cc1cc(Nc2ccnc3c2CCC3(C)O)ccc1NCCc1c[nH]c2c(C(C)O)cccc12` (stereo not drawn) [Compound 10], the “p53-elisa LAD (lowest dose giving at least 140% of the value for p53 present in the control)” value in the assay on p53 in A2780 cells is 1.0 µM. Besides, the “HCT116 cell proliferation inhibition pIC50” value in assay [2] is given as 6.47. Also, the “DU145 cell proliferation inhibition pIC50” value in assay [1] turned out to be 5.65.
The corresponding values for `CC(C)(O)c1cccc2c(CCNc3ccc(Nc4ccnc5c4CCC5(C)O)cc3)c[nH]c12` (single isomer, unassigned) [Compound 30] are 0.10 µM, 7.19 and 6.14.
As to `C=C(C)c1cccc2c(CCNc3ccc(Nc4ccnc5c4CCC5OC)cc3)c[nH]c12` (stereo not drawn) [Compound 7], in the assay with p53 in A2780 cells, the minimal effective concentration stood at 0.3 µM. Moreover, the IC50 was 100 nM in assay [2] and 251 nM in assay [1].
Consider `COc1cc(Nc2ccnc3c2CCC3O)ccc1NCCc1c[nH]c2c(C(C)(C)O)cccc12` (stereo not drawn) [Compound 11], for which the “p53-elisa LAD (lowest dose giving at least 140% of the value for p53 present in the control)” value in the assay on p53 in A2780 cells is 0.30 µM. Besides, the “HCT116 cell proliferation inhibition pIC50” value in assay [2] is listed as 6.67. In addition, in assay [1], the “DU145 cell proliferation inhibition pIC50” value amounted to 6.21.
For `OCc1cccc2c(CCNc3ccc(Nc4ccnc5c4CCC5O)cc3)c[nH]c12` (stereo not drawn) [Compound 6], in the assay on p53 in A2780 cells, the minimal effective concentration turned out to be 1 µM. In addition, the IC50 in assay [2] is 4070 nM.
Take `COC1CCc2c(Nc3ccc(NCCc4c[nH]c5c(C(C)(C)O)cccc45)cc3)ccnc21` (single isomer, unassigned) [Compound 25]: the “p53-elisa LAD (lowest dose giving at least 140% of the value for p53 present in the control)” value in the assay on p53 in A2780 cells was 0.10 µM.
On to `Cc1cc(Nc2ccncc2)ccc1NCCc1c[nH]c2c(C(O)C(C)C)cccc12` (stereo not drawn) [Compound 22], for which the “p53-elisa LAD (lowest dose giving at least 140% of the value for p53 present in the control)” value with p53 in A2780 cells was 3.00 µM. The “DU145 cell proliferation inhibition pIC50” value in assay [1] stood at 5.07.
On to `Cc1cc(Nc2ccnc3c2CCC3(C)O)ccc1NCCc1c[nH]c2c(C(C)(C)O)cccc12` (single isomer, unassigned) [Compound 27], for which the minimal effective concentration with p53 in A2780 cells stood at 0.1 µM. The values for the IC50 in assay [2] and in assay [1] were 83.2 nM and 1000 nM, respectively.
Turning to `COC1CCc2c(Nc3ccc(NCCc4c[nH]c5c(C(C)(C)O)cccc45)c(C)c3)ccnc21` (single isomer, unassigned) [Compound 28], the “p53-elisa LAD (lowest dose giving at least 140% of the value for p53 present in the control)” value with p53 in A2780 cells was determined as 0.10 µM. Moreover, the “HCT116 cell proliferation inhibition pIC50” value in assay [2] was 7.11. Also, in assay [1], the “DU145 cell proliferation inhibition pIC50” value amounted to 6.52.
In the case of `Cc1cc(Nc2ccnc3c2CCC3O)ccc1NCCc1c[nH]c2c(C(C)O)cccc12` (single isomer, unassigned) [Compound 15], in the assay with p53 in A2780 cells, the “p53-elisa LAD (lowest dose giving at least 140% of the value for p53 present in the control)” value came out at 0.10 µM. Also, the “HCT116 cell proliferation inhibition pIC50” value in assay [2] was 6.69.
With `Cc1cc(Nc2ccnc(CO)c2)ccc1NCCc1c[nH]c2c(C(C)(C)O)cccc12` [Compound 19], the “p53-elisa LAD (lowest dose giving at least 140% of the value for p53 present in the control)” value with p53 in A2780 cells was 0.10 µM. Moreover, the “DU145 cell proliferation inhibition pIC50” value in assay [1] is 5.74.
Regarding `Cc1cc(Nc2ccnc3c2CCC3O)ccc1NCCc1c[nH]c2c(C(C)O)cccc12` (single isomer, unassigned) [Compound 12], the “p53-elisa LAD (lowest dose giving at least 140% of the value for p53 present in the control)” value in the assay on p53 in A2780 cells stood at 0.10 µM. In addition, the “HCT116 cell proliferation inhibition pIC50” value in assay [2] is 6.06.
As to `Cc1cc(Nc2ccnc3c2CCC3O)ccc1NCCc1c[nH]c2c(C(C)(C)O)cccc12` (stereo not drawn) [Compound 20], the minimal effective concentration in the assay on p53 in A2780 cells stood at 0.03 µM. In assay [1], the “DU145 cell proliferation inhibition pIC50” value worked out at 5.73.
